Where “and” joins values, the source holds several entries; their conditions need not be identical. Equal entries are not always repeated.
How the values were obtained:
[1] = target: T1, Amine oxidase [flavin-containing] B (Homo sapiens, UniProt P27338); experiment: MAO Inhibition Assays; conditions: pH 7.4
T1 sequence (P27338 whole entry): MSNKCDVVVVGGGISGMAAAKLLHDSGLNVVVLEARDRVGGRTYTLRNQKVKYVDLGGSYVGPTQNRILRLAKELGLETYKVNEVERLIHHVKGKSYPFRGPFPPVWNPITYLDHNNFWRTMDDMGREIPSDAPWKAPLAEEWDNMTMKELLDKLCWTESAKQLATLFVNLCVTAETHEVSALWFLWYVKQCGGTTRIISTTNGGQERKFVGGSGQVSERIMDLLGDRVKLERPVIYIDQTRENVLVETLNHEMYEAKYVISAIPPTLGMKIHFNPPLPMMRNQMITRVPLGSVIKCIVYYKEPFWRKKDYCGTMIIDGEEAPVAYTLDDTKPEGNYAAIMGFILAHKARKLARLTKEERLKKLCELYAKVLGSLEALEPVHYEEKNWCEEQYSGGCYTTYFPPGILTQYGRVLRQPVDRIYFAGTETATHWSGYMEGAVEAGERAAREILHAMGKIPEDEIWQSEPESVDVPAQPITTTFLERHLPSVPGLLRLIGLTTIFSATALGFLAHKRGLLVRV
Procedure: The enzymatic reactions were carried out at pH 7.4 (K2HPO4/KH2PO4 100 mM, made isotonic with KCl) to a final volume of 500 µL. The reactions contained the different inhibitor concentrations spanning at least 3 orders of magnitude and the MAO-A/B mixed substrate kynuramine (45 µM for MAO-A and 30 µM for MAO-B). DMSO, as co-solvent (4%) was added to each reaction. The enzyme reactions were initiated with the addition of MAO-A or MAO-B (0.0075 mg protein/mL) and incubated for 20 min at 37 °C in a waterbath. After termination with the additionof 400 µL NaOH (2 N) and 1000 µL water, the concentrations of the MAO generated 4-hydroxyquinoline were measured by fluorescence spectrophotometry (excitation = […]; emission = […]).

[2] = target: T2, Adenosine receptor A1 (Rattus norvegicus, UniProt P25099); experiment: Radioligand Binding Assays
T2 sequence (P25099 whole entry): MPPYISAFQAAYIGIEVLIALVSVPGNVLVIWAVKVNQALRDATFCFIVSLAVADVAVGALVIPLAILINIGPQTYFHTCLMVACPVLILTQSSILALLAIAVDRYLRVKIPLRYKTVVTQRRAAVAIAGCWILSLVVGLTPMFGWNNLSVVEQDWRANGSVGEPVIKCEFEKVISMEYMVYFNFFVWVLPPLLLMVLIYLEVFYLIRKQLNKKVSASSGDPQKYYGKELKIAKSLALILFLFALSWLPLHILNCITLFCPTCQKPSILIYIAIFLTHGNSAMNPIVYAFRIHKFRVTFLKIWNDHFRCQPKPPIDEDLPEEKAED
Procedure: (§1) For the A2a receptor binding study, the incubation contained 10 mg of the original tissue weight of the striatal membranes, 4 nM [3H]NECA, 50 nM CPA, 10 mM MgCl2, 0.2 units/mL adenosine deaminase, the test compound and 1% DMSO. For the A1 receptor binding study, the incubations contained 5 mg of the original tissue weight of the whole brain membranes, 0.1 nM [3H]DPCPX, 0.2 units/mL adenosine deaminase, the test compound and 1% DMSO. The incubations were vortexed and incubated for 60 min at 25 °C in a shaking waterbath. Half an hour after incubation was started, the incubations were vortexed again. The incubations were terminated via filtration. The tubes were washed twice with 4 mL ice-cold Tris buffer and the filters were washed once more with 4mL ice-cold Tris buffer. The damp filters were place in scintillation vials and 4 mL of scintillation fluid was added. The vials were shaken and incubated for two hours before being counted.

[3] = target: Adenosine receptor A2a (Rattus norvegicus, UniProt P30543); experiment: Radioligand Binding Assays
Procedure: as §1

Sequence of Adenosine receptor A2a (P30543 whole entry): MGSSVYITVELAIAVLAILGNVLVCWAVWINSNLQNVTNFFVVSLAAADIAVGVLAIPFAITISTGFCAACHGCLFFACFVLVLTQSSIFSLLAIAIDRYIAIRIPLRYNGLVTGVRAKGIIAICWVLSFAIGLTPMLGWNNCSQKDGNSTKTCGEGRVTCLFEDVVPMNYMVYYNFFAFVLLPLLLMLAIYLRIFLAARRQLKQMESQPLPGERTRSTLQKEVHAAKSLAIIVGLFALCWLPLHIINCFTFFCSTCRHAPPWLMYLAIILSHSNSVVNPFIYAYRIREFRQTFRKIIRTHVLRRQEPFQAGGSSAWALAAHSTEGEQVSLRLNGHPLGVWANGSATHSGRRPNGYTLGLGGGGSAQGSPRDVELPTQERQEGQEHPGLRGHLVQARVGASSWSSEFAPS

| Compound | IC50 [1] | Ki [2] | Ki [3] |
| --- | --- | --- | --- |
| O=C1NC(=O)c2cc(OCc3ccccc3)ccc21 |  | 4670 nM |  |
| O=C1Nc2ccc(OCc3ccccc3)cc2C1=O [5-Benzyloxyisatin] |  | 9790 nM |  |
| O=C1NC(=O)c2cc(SCc3ccc(Br)cc3)ccc21 |  | 676 nM |  |
| O=C1NC(=O)c2cc(SCc3ccc(F)cc3)ccc21 |  | 36700 nM and 6300 nM | 12700 nM |
| COc1ccc(CSc2ccc3c(c2)C(=O)NC3=O)cc1 |  | 369 nM and 1730 nM |  |

Results, then the compound that gave them:

| IC50 [1] | Ki [2] | Ki [3] | Compound |
| --- | --- | --- | --- |
| 460 nM |  |  | O=C1NC(=O)c2cc(SCc3ccc(Cl)cc3)ccc21 |
|  | 595 nM and 548 nM | 980 nM | O=C1NC(=O)c2cc(SCc3ccccc3)ccc21 |
| 3900 nM | 1880 nM and 649 nM | 17000 nM | O=C1NC(=O)c2cc(SCCc3ccccc3)ccc21 |
